From patent US20020173036A1, “Cell line and method of making and using same” (priority 2001, published 2002)

Tests used:
MARCKS = MARCKS immunostaining (subcellular localization); assay type: cell-based, human; settings: 90 min at 37° C.
Method: (§1) Cells were treated as described for the growth culve for 90 min at 37° C. Prior to MARCKS staining some cells were treated with 14 nM bisindolylmaleimide (Calbiochem, La Jolla, Calif.) for 90 min at 37° C. in order to down-regulate PKC isoforms. Cells were immunostained for PKC-α using an immunofluorescent assay kit and instructions from Research and Diagnostics (Berkley, Calif.) as described previously by Carter, et al., 1998. For MARCKS staining, cells were fixed and permeabilized as described for F-actin visualization and exposed to an anti-MARCKS mouse monoclonal IgG antibody (Upstate Biotechnology, Lake Placid, N.Y.) diluted 1:400 in 1% Bovine Serum Albumin and 0.5% nonfat dry milk (Carnation) in PBS for 1 hr at 37° C. […] Cells were rinsed, mounted and observed as described for actin staining.

hematopoietic cells = settings: cited from earlier work
PKC-α [1] = target: T1, PKC-α (Homo sapiens, UniProt P17252); experiment: PKC-α Western blot of cytosolic and particulate fractions; assay type: cell-based; settings: CAC-1 cells; for amount of PKC-α in the cytosolic fraction / amount of PKC-α in the particulate fraction: 1 μM, 90 min
T1 construct: Cytosolic and particulate fractions were prepared from CAC-1 cells and 30 μg of protein/lane was applied to SDS/PAGE and PKC-α detected by immunoblotting; endogenous in cells
Method: Confluent 100 mm dishes of CAC-1 cells in the exponential phase of growth (70-80% maximum density) were treated for 90 min with media alone or 1 μM doses of all-trans or 13-cis retinoic acid, corresponding amounts of ethanol (vehcile control) or with TPA for 20 min to activate PKC-α. Cytosolic and particulate fractions of cells were isolated as described previously (Carter, et al., 1998) and changes in PKC-α were analyzed by Western blot analysis using methods described previously and a primary antibody from Transduction Laboratories (Carter, et al., 1998).

CAC-1 cells [2] = experiment: Cell detachment assay; assay type: cell-based, human; settings: 1 μM, 24 hrs at 37° C.
Method: CAC-1 cells were plated onto 35 mm plastic tissue culture dishes at 100,000 cells per dish and allowed to attach for 7 days. For analysis of the retinoic acid effects on cell attachment, cell detachment assays were performed using the methods of Guo, et al., 1995. Cells were exposed to media alone (controls), 1 μM 13-cis retinoic acid, […] retinoic acid or corresponding doses of ethanol alone in culture media alone (vehicle control) for 24 hrs at 37° C. prior to cell counting. The assays were performed in duplicate. Cells were rinsed twice with sterile HBSS and exposed to 0.5% trypsin/EDTA (Gibco, BRL) for 10 min with constant agitation on a rocker set at 120 rpm's. The media containing the detached cells was collected. Detached cells from each dish were counted using a hemacytometer and the mean calculated and graphed using Cricket Graph. Statistics were performed using StatMost, (DataMost Corporation, Sandy, Utah). Statistical analysis was performed using one way analysis of variance-(ANOVA).

CAC-1 cells [3] = experiment: Retinoic acid treatment and F-actin staining with cell size measurement; settings: 1 μM, 90 min at 37° C.; for mean cell size relative to cells only exposed to media or ethanol: 25 cells per group; for cell enlargement and actin filament reorganization (F-actin staining): CAC-1 cells at passage 12
PKC-α [4] = target: T1, PKC-α; experiment: PKC-α immunostaining (subcellular localization); assay type: cell-based; settings: 1 μM, 90 min at 37° C.
Method: as §1

| amount of PKC-α in the cytosolic fraction (PKC-α [1]) | amount of PKC-α in the particulate fraction (PKC-α [1]) | Molecule | MARCKS localization (MARCKS; 14 nM) | decrease in mean F-actin content (hematopoietic cells) | PKC-α distribution between cytosolic and particulate fractions (PKC-α [1]; 100 nM TPA for 20 min) | decrease in cell detachment compared to controls (CAC-1 cells [2]) | MARCKS localization (MARCKS; 1 μM) | mean cell size relative to cells only exposed to media or ethanol (CAC-1 cells [3]) | cell enlargement and actin filament reorganization (F-actin staining) (CAC-1 cells [3]) | PKC-α localization (PKC-α [4]) |
| --- | --- | --- | --- | --- | --- | --- | --- | --- | --- | --- |
|  |  | bisindolylmaleimide | MARCKS staining was prominent in the plasma membrane |  |  |  |  |  |  |  |
|  |  | CCCCCCCCCCCCCC(=O)O[C@@H]1[C@@H](C)[C@@]2(O)[C@@H](C=C(CO)C[C@]3(O)C(=O)C(C)=C[C@@H]23)[C@@H]2C(C)(C)[C@]12OC(C)=O [TPA, 12-O-tetradecanoylphorbol-13-acetate] |  | 32% | most of the PKC-α was present in the particulate fraction |  |  |  |  |  |
| slight increase | decrease | CC1=C(/C=C/C(C)=C/C=C/C(C)=C/C(=O)O)C(C)(C)CCC1 [all-trans retinoic acid] |  |  |  | around 40% | MARCKS localized to the plasma membrane | twice the size | cells also enlarged and actin filaments were prominent throughout the cells | localize exclusively to the cytoplasm occurring predominantly in perinuclear regions |
| slight increase | decrease | CC1=C(/C=C/C(C)=C/C=C/C(C)=C\C(=O)O)C(C)(C)CCC1 [13-cis retinoic acid] |  |  |  | around 40% | MARCKS localized to the plasma membrane | twice the size | cells enlarged and actin filaments were apparent | localize exclusively to the cytoplasm occurring predominantly in perinuclear regions |
